Here are results for one compound from patent publication US20260124192A1, “COMPOUNDS, COMPOSITIONS, AND METHODS OF TREATING RNA VIRAL INFECTIONS” (priority 2024, published 2026).

The test has as its system 13 viruses and variants. In words: organism not typed. The format is cell-based.

Regarding `Cc1c(-c2ccc(O)cc2)n(Cc2ccc(OCCN3CCCCC3)cc2)c2ccc(O)cc12` [Pipendoxifene], the potency result was “submicromolar potency”.
